What was measured:
Assay in all cases: relative viability (nuclei count vs DMSO), 5 days (fraction); higher = more cells survive
[1] = tested on: EMC-BAC-2
Outline: (§1)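 Nuclei were stained with Hoechst during a one-step fixation (final 0.05% Triton X-100, 1% formaldehyde, 1 ug/ml Hoechst) carried out 5 days after dosing, then counted on 4× images. The cells, lung cancer lines in 1536-well plates, had been dosed by pin tool the day after seeding with one drug alone or a fixed anchor-drug dose plus five library-drug doses (not always all listed) in √10 steps. Relative viability is the nuclei count in treated wells divided by that in vehicle wells, and each value is the median of duplicate plates.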

[2] = tested on: EPLC-272H
Outline: as §1

[3] = tested on: H3255
Outline: as §1

[4] = tested on: HCC-44
Outline: as §1

[5] = tested on: HCC-827
Outline: as §1

[6] = tested on: LCLC-97TM1
Outline: as §1

[7] = tested on: NCI-H1355
Outline: as §1

[8] = tested on: NCI-H1395
Outline: as §1

[9] = tested on: NCI-H1563
Outline: as §1

[10] = tested on: NCI-H1651
Outline: as §1

[11] = tested on: NCI-H1793
Outline: as §1

[12] = tested on: NCI-H1944
Outline: as §1

[13] = tested on: NCI-H2023
Outline: as §1

[14] = tested on: NCI-H2085
Outline: as §1

[15] = tested on: NCI-H2087
Outline: as §1

[16] = tested on: NCI-H2405
Outline: as §1

[17] = tested on: NCI-H322M
Outline: as §1

[18] = tested on: NCI-H520
Outline: as §1

[19] = tested on: NCI-H650
Outline: as §1

[20] = tested on: SK-MES-1
Outline: as §1

[21] = tested on: UMC-11
Outline: as §1

SMILES: C=C1C(=O)O[C@@H](CCCCCCCC)[C@@H]1C(=O)O [C-75] + CS(=O)(=O)CCNCc1ccc(-c2ccc3ncnc(Nc4ccc(OCc5cccc(F)c5)c(Cl)c4)c3c2)o1 [Lapatinib] (partner 2 µM)
- relative viability ([1]; first compound 0.08 µM): 0.897
- relative viability ([1]; first compound 0.253 µM): 0.85
- relative viability ([1]; first compound 0.8 µM): 0.882
- relative viability ([1]; first compound 2.53 µM): 0.721
- relative viability ([1]; first compound 8 µM): 0.998
- relative viability ([2]; first compound 0.08 µM): 0.974
- relative viability ([2]; first compound 0.253 µM): 0.805
- relative viability ([2]; first compound 0.8 µM): 1.01
- relative viability ([2]; first compound 2.53 µM): 0.592
- relative viability ([2]; first compound 8 µM): 0.789
- relative viability ([3]; first compound 0.08 µM): 0.277
- relative viability ([3]; first compound 0.253 µM): 0.314
- relative viability ([3]; first compound 0.8 µM): 0.254
- relative viability ([3]; first compound 2.53 µM): 0.21
- relative viability ([3]; first compound 8 µM): 0.274
- relative viability ([4]; first compound 0.08 µM): 0.943
- relative viability ([4]; first compound 0.253 µM): 0.963
- relative viability ([4]; first compound 0.8 µM): 0.943
- relative viability ([4]; first compound 2.53 µM): 0.946
- relative viability ([4]; first compound 8 µM): 0.962
- relative viability ([5]; first compound 0.08 µM): 0.23
- relative viability ([5]; first compound 0.253 µM): 0.235
- relative viability ([5]; first compound 0.8 µM): 0.212
- relative viability ([5]; first compound 2.53 µM): 0.191
- relative viability ([5]; first compound 8 µM): 0.205
- relative viability ([6]; first compound 0.08 µM): 0.684
- relative viability ([6]; first compound 0.253 µM): 1.67
- relative viability ([6]; first compound 0.8 µM): 0.881
- relative viability ([6]; first compound 2.53 µM): 0.555
- relative viability ([6]; first compound 8 µM): 0.543
- relative viability ([7]; first compound 0.08 µM): 0.939
- relative viability ([7]; first compound 0.253 µM): 1.08
- relative viability ([7]; first compound 0.8 µM): 0.884
- relative viability ([7]; first compound 2.53 µM): 0.943
- relative viability ([7]; first compound 8 µM): 1.01
- relative viability ([8]; first compound 0.08 µM): 0.997
- relative viability ([8]; first compound 0.253 µM): 1.11
- relative viability ([8]; first compound 0.8 µM): 0.949
- relative viability ([8]; first compound 2.53 µM): 1.49
- relative viability ([8]; first compound 8 µM): 1.06
- relative viability ([9]; first compound 0.08 µM): 0.886
- relative viability ([9]; first compound 0.253 µM): 0.979
- relative viability ([9]; first compound 0.8 µM): 0.881
- relative viability ([9]; first compound 2.53 µM): 0.998
- relative viability ([9]; first compound 8 µM): 1
- relative viability ([10]; first compound 0.08 µM): 0.706
- relative viability ([10]; first compound 0.253 µM): 0.853
- relative viability ([10]; first compound 0.8 µM): 0.816
- relative viability ([10]; first compound 2.53 µM): 0.747
- relative viability ([10]; first compound 8 µM): 0.81
- relative viability ([11]; first compound 0.08 µM): 0.635
- relative viability ([11]; first compound 0.253 µM): 0.785
- relative viability ([11]; first compound 0.8 µM): 0.493
- relative viability ([11]; first compound 2.53 µM): 0.483
- relative viability ([11]; first compound 8 µM): 0.713
- relative viability ([12]; first compound 0.08 µM): 0.792
- relative viability ([12]; first compound 0.253 µM): 0.755
- relative viability ([12]; first compound 0.8 µM): 0.685
- relative viability ([12]; first compound 8 µM): 0.682
- relative viability ([13]; first compound 0.08 µM): 0.963
- relative viability ([13]; first compound 0.253 µM): 0.956
- relative viability ([13]; first compound 0.8 µM): 0.737
- relative viability ([13]; first compound 2.53 µM): 0.691
- relative viability ([13]; first compound 8 µM): 0.653
- relative viability ([14]; first compound 0.08 µM): 0.802
- relative viability ([14]; first compound 0.253 µM): 0.867
- relative viability ([14]; first compound 0.8 µM): 0.679
- relative viability ([14]; first compound 2.53 µM): 0.671
- relative viability ([14]; first compound 8 µM): 0.769
- relative viability ([15]; first compound 0.08 µM): 1.07
- relative viability ([15]; first compound 0.253 µM): 0.975
- relative viability ([15]; first compound 0.8 µM): 1.1
- relative viability ([15]; first compound 2.53 µM): 0.868
- relative viability ([15]; first compound 8 µM): 0.776
- relative viability ([16]; first compound 0.08 µM): 1.07
- relative viability ([16]; first compound 0.253 µM): 0.772
- relative viability ([16]; first compound 0.8 µM): 1
- relative viability ([16]; first compound 2.53 µM): 1.07
- relative viability ([16]; first compound 8 µM): 1.06
- relative viability ([17]; first compound 0.08 µM): 0.597
- relative viability ([17]; first compound 0.253 µM): 0.744
- relative viability ([17]; first compound 0.8 µM): 0.59
- relative viability ([17]; first compound 2.53 µM): 0.568
- relative viability ([17]; first compound 8 µM): 0.629
- relative viability ([18]; first compound 0.08 µM): 0.835
- relative viability ([18]; first compound 0.253 µM): 0.964
- relative viability ([18]; first compound 0.8 µM): 0.703
- relative viability ([18]; first compound 2.53 µM): 0.734
- relative viability ([18]; first compound 8 µM): 0.598
- relative viability ([19]; first compound 0.08 µM): 1.02
- relative viability ([19]; first compound 0.253 µM): 0.86
- relative viability ([19]; first compound 0.8 µM): 0.803
- relative viability ([19]; first compound 2.53 µM): 0.855
- relative viability ([19]; first compound 8 µM): 0.826
- relative viability ([20]; first compound 0.08 µM): 0.442
- relative viability ([20]; first compound 0.253 µM): 0.441
- relative viability ([20]; first compound 0.8 µM): 0.397
- relative viability ([20]; first compound 8 µM): 0.429
- relative viability ([21]; first compound 0.08 µM): 1.01
- relative viability ([21]; first compound 0.253 µM): 1.08
- relative viability ([21]; first compound 0.8 µM): 0.764
- relative viability ([21]; first compound 2.53 µM): 0.795
- relative viability ([21]; first compound 8 µM): 0.655

From the supplement of paper PMC10307832
